Laboratory results taken from patent publication US8778337B2, “Use of S-adenosylmethionine (SAM) and superoxide dismutase (SOD) for the preparation of medicaments for the treatment of alzheimer's disease” (Gnosis S.p.A., priority 2008, dated 2014).
Values belong to the molecule of their own block, whether it stands above or below them.

Experiments:
[1] = tested on: BACE; test: Preliminary experiments: BACE expression in SK-N-SH neuroblastoma line in vitamin B-deprived medium; type: cell-based; settings: medium deprived of folate, vitamin B12 and vitamin B6, SAM at various concentrations, published
Procedure: (§1) Preliminary experiments have been performed on a neuroblastoma line (SK-N-SH) which expresses APP, PS1, PS2, BACE, alpha-secretase, the other components of gamma-secretase, and Notchl. The cultures were treated with a culture medium deprived of folate, vitamin B12 and vitamin B6 (in order to alter the metabolism of homocysteine), to which SAM was added at various concentrations (to balance the effects of vitamin deprivation). […] In experiments conducted with HpaII/PCR on APP and PS1 promoters, we found a major difference in the methylation of one of the CpG sites of the PS1 promoter. We concluded that the PS1 gene can be partly silenced by administration of exogenous SAM. The administration of SAM can reduce PS1 expression, restoring the metabolic balance in favour of alpha-secretase. Experiments have also been conducted with transgenic mice of the strain TgCRND8, and corresponding controls; these mice are characterised by the presence of the human mutated APP gene, and can therefore develop amyloid plaques in a short time. These animals were fed on a complete diet or a diet lacking in the vitamins of the B group; once again, as in the cells, an increase in PS1 and BACE expression was observed.

[2] = tested on: PS1; test: Preliminary experiments: PS1 expression in SK-N-SH neuroblastoma line in vitamin B-deprived medium; type: cell-based; settings: medium deprived of folate, vitamin B12 and vitamin B6, SAM at various concentrations, published
Procedure: as §1

[3] = tested on: PS1; test: PS1 gene expression in brains of mice on a vitamin B-deprived diet (real-time PCR); type: in vivo; settings: TgCRND8 mice and wild-type controls, SAM 400 μg/day, brain cDNA normalised to β-actin, FIG. 1, even lower than control diet
Procedure: (§2) In particular, the effect of SAM was tested at pharmacological concentrations (400 μg/day) on TgCRND8 mice and the corresponding wild-type controls.
(§3) RNA was extracted from cell cultures and homogenised brains, and cDNA was synthesised. 0.5 μg of total cDNA was used for each real-time reaction on an Opticon2 DNA Engine (MJ Research) using SYBR-Green reagents. The amplification efficiency for each pair of primers was previously determined by amplification of a standard linear curve. The experimental samples were compared with a standard curve of a specific gene to determine the quantity of specific cDNA present in the standard reaction. The standards were obtained from highly purified PCR products amplified by positive controls. The total cDNA levels were normalised to the β-actin control (gene housekeeping).

[4] = SAM uptake in mouse brain after oral administration (HPLC and tritiated SAM scintillation count); type: in vivo; settings: mice, 800 μg tritiated SAM; total and cleared lysates higher
Procedure: (§4) For the mice, 400 μg/day of SAM was administered orally by feeding probe needle, and the animals were sacrificed after 2 months; the animals were fed on a complete diet or a vitamin B-deprived diet, according to trial design. SAM levels were analysed by HPLC with a Varian HPLC system. The cells and homogenised brains were lysed in distilled water, and the macromolecules were precipitated with 1.5 M PCA. Standard SAM curves were calculated before and after the experimental samples. For the analysis of tritiated SAM, cells were treated as described above, while mice were treated for 4 days to minimise exposure to the radioactive drug. The cells and homogenised brains were lysed in distilled water. A portion of lysed brains was sonicated and centrifuged to separate membranes and cell organelles; another portion was treated with perchloric acid (PCA) after sonication to separate the macromolecules. The uptake of radioactive SAM was measured by scintillation with a beta counter.
A portion of the total brain lysates was also sonicated and centrifuged to obtain a cleared lysate (cytoplasm), and a further portion of this cleared lysate was precipitated with perchloric acid (PCA) to eliminate the proteins (soluble lysate).

[5] = tested on: BACE; test: BACE gene expression in brains of mice on a vitamin B-deprived diet (real-time PCR); type: in vivo; settings: TgCRND8 mice and wild-type controls, SAM 400 μg/day, brain cDNA normalised to β-actin, FIG. 1, even lower than control diet
Procedure: as §2, §3

[6] = tested on: SK-N-BE cell cultures; test: SAM uptake in cell cultures (HPLC and tritiated SAM scintillation count); type: in vitro ADME, human; settings: 100 μM SAM in F14 medium, 96 hours, HPLC; control 1
Procedure: For the cell cultures, 100 μM of SAM was added to the F14 cell culture medium (complete or deprived of vitamin B, according to trial design) and the cultures were stopped after 96 hours.
as §4, with “A portion of lysed brains was sonicated and centrifuged to separate membranes and cell organelles; another portion was treated with perchloric acid (PCA) after sonication to separate the macromolecules.” left out
To establish whether the increase was due to uptake of exogenous SAM as opposed to an increase in the endogenous reserves in the presence of elevated extracellular concentrations of the molecule, a test was performed with radioactive SAM. 100 μM of tritiated SAM (SAM[3H]) was added to SK-N-BE cell cultures, and the uptake was evaluated by cell lysis and radioactivity count.

[7] = tested on: BACE; test: BACE gene expression in vitamin-deprived SK-N-BE neuroblastoma cells (real-time PCR); type: cell-based, human; settings: FIG. 2, SOD and GSH to a lesser extent than SAM
Procedure: as §3
(§5) As homocysteine metabolism is involved in both methylation and oxidoreduction reactions, we tested the effect of various antioxidants on the expression of the two genes.

[8] = tested on: PS1; test: PS1 gene expression in vitamin-deprived SK-N-BE neuroblastoma cells (real-time PCR); type: cell-based, human; settings: FIG. 2, SOD and GSH to a lesser extent than SAM
Procedure: as §3, §5

radioactivity level of soluble brain lysate (PCA-precipitated cleared lysate), as SAM [4]: ~0.5 ng | intracellular levels of SAM [6]: 2.5 to 3 µM
Molecule: C[S+](CC[C@H](N)C(=O)O)C[C@H]1O[C@@H](n2cnc3c(N)ncnc32)[C@H](O)[C@@H]1O (some centres unmarked) [SAM, S-adenosylmethionine]
BACE expression after the administration of SAM [1]: marked reduction | PS1 expression after the administration of SAM [2]: marked reduction | overexpression of PS1 induced by a deprived diet in vivo [3]: reverses the overexpression | overexpression of BACE induced by a deprived diet in vivo [5]: reverses the overexpression

B1: SOD: enzyme superoxide dismutase, obtained by fermentation from strains of Saccharomyces cerevisiae (protein, UniProt P00445 2-154, looked up)
Superoxide dismutase [Cu-Zn]: VQAVAVLKGDAGVSGVVKFEQASESEPTTVSYEIAGNSPNAERGFHIHEFGDATNGCVSAGPHFNPFKKTHGAPTDEVRHVGDMGNVKTDENGVAKGSFKDSLIKLIGPTSVVGRSVVIHAGQDDLGKGDTEESLKTGNAGPRPACGVIGLTN
overexpression of BACE induced by vitamin deprivation [7]: inhibit overexpression | overexpression of PS1 induced by vitamin deprivation [8]: inhibit overexpression
